Measurements from PMC3974799 (PLoS ONE, 2014).

Tests used:
[1] = target: T1, cytochrome bc1 complex (Btbc1), cyt b subunit (Bos taurus, UniProt P00157); test: cyt c reduction assay with purified bc1; format: biochemical
T1 construct: gene MT-CYB; purified 11-subunit mitochondrial bc1 complex from beef heart; with cyt c1, iron-sulfur protein (bc1 complex)

[2] = target: T1, cytochrome bc1 complex (Btbc1), cyt b subunit; test: Lineweaver-Burk kinetics at […]; difference spectra; single turnover; format: biochemical
[3] = target: T2, cytochrome bc1 complex (Rsbc1), cyt b subunit (Cereibacter sphaeroides, UniProt Q02761); test: cyt c reduction assay with purified bc1; Lineweaver-Burk kinetics; format: biochemical
T2 construct: gene petB; purified hexahistidine-tagged 4-subunit bc1 complex; with cyt c1, iron-sulfur protein (bc1 complex)
T2 sequence (Q02761 2-445): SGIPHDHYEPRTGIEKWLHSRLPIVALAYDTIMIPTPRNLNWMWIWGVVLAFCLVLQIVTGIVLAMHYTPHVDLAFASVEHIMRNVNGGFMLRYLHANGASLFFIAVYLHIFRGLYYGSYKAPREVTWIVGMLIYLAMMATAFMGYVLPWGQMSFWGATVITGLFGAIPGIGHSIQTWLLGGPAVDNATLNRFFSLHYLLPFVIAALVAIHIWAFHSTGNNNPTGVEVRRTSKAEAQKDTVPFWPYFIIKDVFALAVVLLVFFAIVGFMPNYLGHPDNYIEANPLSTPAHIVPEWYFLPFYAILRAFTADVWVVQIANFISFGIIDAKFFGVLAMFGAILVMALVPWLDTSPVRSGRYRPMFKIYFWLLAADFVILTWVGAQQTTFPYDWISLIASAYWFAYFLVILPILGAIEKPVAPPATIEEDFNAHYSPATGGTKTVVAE

[4] = test system: T3, Complex III (cyt bc1 complex), cyt b subunit; test: cyt c reduction with decylubiquinol in isolated mitochondria, […] inhibition at […]; format: cell-based, Phytophthora capsici; conditions: 4 µM
T3 construct: light mitochondrial fraction; with cyt c1, iron-sulfur protein (bc1 complex)

[5] = target: T1, cytochrome bc1 complex (Btbc1), cyt b subunit; test: cyt c reduction assay with purified bc1; also difference spectra and Lineweaver-Burk kinetics; format: biochemical

T1 sequence (P00157 whole entry): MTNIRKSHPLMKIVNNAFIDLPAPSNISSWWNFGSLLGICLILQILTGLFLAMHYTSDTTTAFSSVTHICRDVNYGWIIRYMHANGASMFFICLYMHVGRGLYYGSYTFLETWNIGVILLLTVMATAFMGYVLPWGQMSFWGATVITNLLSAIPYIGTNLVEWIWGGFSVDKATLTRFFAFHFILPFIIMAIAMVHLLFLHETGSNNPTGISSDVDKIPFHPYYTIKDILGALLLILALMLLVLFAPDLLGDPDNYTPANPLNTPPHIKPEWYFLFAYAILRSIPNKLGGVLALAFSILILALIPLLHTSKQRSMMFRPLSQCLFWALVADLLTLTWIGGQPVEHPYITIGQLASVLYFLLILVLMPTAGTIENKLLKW
T1 sequence (P13272 79-274 partner): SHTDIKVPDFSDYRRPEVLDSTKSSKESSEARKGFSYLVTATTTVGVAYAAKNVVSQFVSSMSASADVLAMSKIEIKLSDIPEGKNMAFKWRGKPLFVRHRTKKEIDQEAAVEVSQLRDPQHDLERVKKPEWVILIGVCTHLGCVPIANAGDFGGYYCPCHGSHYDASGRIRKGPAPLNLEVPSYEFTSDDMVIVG
T1 sequence (P00125 85-325 partner): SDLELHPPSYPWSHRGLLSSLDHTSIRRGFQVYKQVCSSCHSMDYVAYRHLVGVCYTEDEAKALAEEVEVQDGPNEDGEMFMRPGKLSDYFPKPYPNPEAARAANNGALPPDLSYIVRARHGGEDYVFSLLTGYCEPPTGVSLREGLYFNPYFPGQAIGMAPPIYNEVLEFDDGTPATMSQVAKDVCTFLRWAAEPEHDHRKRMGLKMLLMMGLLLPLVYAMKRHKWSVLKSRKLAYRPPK

## CO/C=C(/C(=O)OC)c1ccccc1Oc1cc(Oc2ccccc2C#N)ncn1 [azoxystrobin]
[1]
  IC50: 0.0477 µM

## CO/C(=C/C(N)=O)[C@H](C)[C@H](/C=C/c1csc(-c2csc([C@@H](C)/C=C/C=C/C(C)C)n2)n1)OC [myxothiazol]
[2]
  Lineweaver-Burk kinetics at 30 and 50 nM; difference spectra; single turnover: myxothiazol is a competitive inhibitor for the substrate quinol but a non-competitive inhibitor for cyt c

## CC(C)(C)c1ccc(/C(=C/C(=O)N2CCOCC2)c2ccnc(Cl)c2)cc1 [pyrimorph, (Z)-3-[(2-chloropyridine-4-yl)-3-(4-tert-butylphenyl)-acryloyl] morpholine]
[3]
  IC50: 69.2 µM
[4]
  percent inhibition: 95.3
[5]
  IC50: 85 µM

## C/C=C(C)/C=C/C=C/[C@H](OC)[C@@H](C)[C@@H](OC)[C@@H](C)CCc1oc2c(O)c(OC)cc(OC)c2c(=O)c1C [stigmatellin]
[1]
  IC50: 0.0028 µM
